The results in this text go back to article PMC3050433, “The effects of maribavir on the autophosphorylation of ganciclovir resistant mutants of the cytomegalovirus UL97 protein” (Herpesviridae, 2010).

Residue numbers refer to the chain shown, from its start.

Common to all, as to assay type: biochemical
The target in assay [1] is T1, UL97 M460I (Human cytomegalovirus, UniProt Q68101, M460I).
T1 construct: PCR reaction to generate the full length UL97; honey bee melittin secretion signal (N); made in house; host or cells: Sf21 insect cells, recombinant baculovirus (pMelBac C)
T1 sequence (Q68101 1-707 M460I): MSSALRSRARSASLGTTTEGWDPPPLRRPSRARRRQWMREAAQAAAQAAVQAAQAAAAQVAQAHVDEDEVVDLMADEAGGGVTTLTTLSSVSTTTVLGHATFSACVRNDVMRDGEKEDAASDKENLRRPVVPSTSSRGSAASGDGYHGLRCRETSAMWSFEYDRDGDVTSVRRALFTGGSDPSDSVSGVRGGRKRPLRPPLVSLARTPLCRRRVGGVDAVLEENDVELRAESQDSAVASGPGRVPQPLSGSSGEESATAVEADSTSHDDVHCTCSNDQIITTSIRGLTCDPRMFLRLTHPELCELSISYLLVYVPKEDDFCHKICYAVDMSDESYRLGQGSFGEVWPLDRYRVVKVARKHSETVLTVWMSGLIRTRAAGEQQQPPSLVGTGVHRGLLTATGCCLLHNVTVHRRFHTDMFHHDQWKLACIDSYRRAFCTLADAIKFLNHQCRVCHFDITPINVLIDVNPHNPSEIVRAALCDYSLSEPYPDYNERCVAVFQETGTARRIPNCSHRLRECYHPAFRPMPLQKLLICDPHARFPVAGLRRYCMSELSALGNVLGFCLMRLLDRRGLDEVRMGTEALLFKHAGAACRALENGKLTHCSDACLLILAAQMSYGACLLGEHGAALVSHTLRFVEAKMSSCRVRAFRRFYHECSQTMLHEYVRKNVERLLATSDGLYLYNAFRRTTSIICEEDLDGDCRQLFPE
As to the kind of experiment: UL97 autophosphorylation protein kinase assay, M460I. The method, then: (§1) Analysis of the autophosphorylation of wild type and mutant UL97 protein species was performed by a standard protein kinase assay as previously described (46). Briefly, purified protein was added to 2× protein kinase buffer (100 mM Tris HCl, pH9.0, 20 mM MgCl2, 10 μM ATP, 4 mM DTT, 2 M NaCl) and 370 KBq [γ^32P] ATP (Amersham), made up to 20 μl with SDW and incubated at 37°C. The reactions were terminated by the addition of 2× SDS sample buffer followed by boiling for 3 minutes. The amount of radiolabelled phosphate incorporated by autophosphorylation was analysed by SDS-PAGE and measured using the Biorad Mulitanalyst. The protein kinase assays were initially performed for 2 to 60 minutes to determine the maximum rate of phosphate incorporation, all assays were then performed at the maximum rate which equated to 5 minutes.
(§2) Enzyme kinetic analysis was performed on the purified wild type and mutant UL97 protein species as above using increasing concentrations of ATP (2 μM to 20 μM). The amount of incorporated radiolabelled phosphate was plotted against the concentration of ATP in a Lineweaver Burke plot to determine the Km for ATP for each UL97 species. […]

The target in assay [2] is T2, UL97 A594T (Human cytomegalovirus, UniProt Q68101, A594T).
T2 construct: PCR reaction to generate the full length UL97; honey bee melittin secretion signal (N); made in house; host or cells: Sf21 insect cells, recombinant baculovirus (pMelBac C)
T2 sequence (Q68101 1-707 A594T): T1 sequence (Q68101 1-707 M460I) with I460M, A594T
As to the kind of experiment: UL97 autophosphorylation protein kinase assay, A594T. As to the method: as §1, §2

Assay [3] deals with T3, UL97 L595F (Human cytomegalovirus, UniProt Q68101, L595F).
T3 construct: PCR reaction to generate the full length UL97; honey bee melittin secretion signal (N); made in house; host or cells: Sf21 insect cells, recombinant baculovirus (pMelBac C)
T3 sequence (Q68101 1-707 L595F): T1 sequence (Q68101 1-707 M460I) with I460M, L595F
The experiment in a line: UL97 autophosphorylation protein kinase assay, L595F. As to the method:
as §1, §2

Turning to `CC(C)Nc1nc2cc(Cl)c(Cl)cc2n1[C@H]1O[C@@H](CO)[C@H](O)[C@@H]1O` [maribavir, 5,6-dichloro-2-(isopropylamino)-1-beta-L-ribofuranosyl-1H-benzimidazole], the IC50 in assay [1] (M460I mutant) is 4.8 nM; in assay [2] (A594T mutant) it was 31 nM; in assay [3] (L595F mutant) it was 28 nM.
With `Nc1ncnc2c1ncn2[C@@H]1O[C@H](COP(=O)(O)OP(=O)(O)OP(=O)(O)O)[C@@H](O)[C@H]1O` [ATP], the Km in assay [1] (M460I, read-out: Km for ATP) was found to be 28 ± 2 µM; in assay [2] (A594T, read-out: Km for ATP), 40 ± 4.2 µM; in assay [3] (L595F, read-out: Km for ATP) it was 31 ± 4.5 µM.
